The term IC50 denotes the concentration that inhibits the measured activity by half. A high value points to a need for much substance.

The assay deals with T1, Interleukin-1 receptor-associated kinase 4 (Homo sapiens, UniProt Q9NWZ3).
T1 sequence (Q9NWZ3 whole entry): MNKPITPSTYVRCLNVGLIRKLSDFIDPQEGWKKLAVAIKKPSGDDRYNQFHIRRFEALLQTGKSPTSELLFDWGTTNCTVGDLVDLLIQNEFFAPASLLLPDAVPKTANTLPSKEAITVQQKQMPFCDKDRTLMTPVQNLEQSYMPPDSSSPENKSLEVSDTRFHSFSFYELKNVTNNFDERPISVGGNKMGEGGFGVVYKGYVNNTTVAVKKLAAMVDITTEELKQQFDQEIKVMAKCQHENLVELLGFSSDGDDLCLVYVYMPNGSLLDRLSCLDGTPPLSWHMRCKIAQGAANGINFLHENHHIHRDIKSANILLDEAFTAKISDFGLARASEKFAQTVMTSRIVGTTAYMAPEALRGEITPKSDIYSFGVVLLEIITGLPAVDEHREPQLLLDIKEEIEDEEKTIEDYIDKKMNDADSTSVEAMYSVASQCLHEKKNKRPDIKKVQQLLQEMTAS
Briefly: IRAK4 Biochemical HTRF Kinase Assay. Here is the method:
The binding capacities of certain bifunctional compounds of Formula (I) were determined using the CisBio HTRF KinEASE STK S1 Kit (#62ST1PEB, contains 5× Kinase buffer, 1× Detection Buffer, anti-phospho-serine/threonine-cryptate, Streptavidin-XL665, and STK-S1), which measures the phosphorylation of a biotinylated peptide substrate by IRAK4, according to the manufacturer's protocol. Briefly, test compounds in DMSO were serially diluted into 384 Plus White Proxiplate (PerkinElmer, #6008280) using a Labcyte Echo 550 Liquid Handler, at a concentration of 50× final in 200 nL of 100% DMSO. 7.8 μl of kinase solution, containing 1.28 nM IRAK4 in 1× Kinase Buffer (supplemented with 3 mM MgCl2, 0.01% Triton X-100, and 1 mM DTT) was added to each compound containing well and incubated at ambient temperature for 30 min. 2 μl of a reaction solution containing 5 μM STK-S1, 10 mM ATP, and 10 mM MgCl2 were added to each well to a final volume of 10 μl. Assay controls include wells containing kinase with no compound (DMSO only) and wells containing no kinase and no compound (DMSO only). The reactions were allowed to proceed at ambient temperature for 90 minutes. […] The plates were incubated for 60 minutes at ambient temperature and then read on an Envision Multilabel Reader (PerkinElmer). […]
(Time-resolved FRET reads energy transfer from a long-lived donor to a nearby acceptor.)

On to `CNc1cc(-c2ccc3cc(C#N)cnn23)ncc1-c1nnc(C23CCC(NC(=O)C4CCN(c5cccc6c5C(=O)N(C5CCC(=O)NC5=O)C6=O)CC4)(CC2)CC3)s1` (stereo unspecified) [US12528814, Example 136], for which the half-inhibitory concentration (IC50) stood at 1.6 nM.

The values above are taken from BindingDB's records for patent US12528814 (Nurix Therapeutics, 2026).
